What was measured:
[1] = molecular target: T1, His-tagged TG2 / biotinylated FN42 interaction (Homo sapiens, UniProt P21980); experiment: ELISA of the TG2-FN interaction; type: binding; conditions: 10 μM
T1 construct: made in house
T1 sequence (P21980 1-687): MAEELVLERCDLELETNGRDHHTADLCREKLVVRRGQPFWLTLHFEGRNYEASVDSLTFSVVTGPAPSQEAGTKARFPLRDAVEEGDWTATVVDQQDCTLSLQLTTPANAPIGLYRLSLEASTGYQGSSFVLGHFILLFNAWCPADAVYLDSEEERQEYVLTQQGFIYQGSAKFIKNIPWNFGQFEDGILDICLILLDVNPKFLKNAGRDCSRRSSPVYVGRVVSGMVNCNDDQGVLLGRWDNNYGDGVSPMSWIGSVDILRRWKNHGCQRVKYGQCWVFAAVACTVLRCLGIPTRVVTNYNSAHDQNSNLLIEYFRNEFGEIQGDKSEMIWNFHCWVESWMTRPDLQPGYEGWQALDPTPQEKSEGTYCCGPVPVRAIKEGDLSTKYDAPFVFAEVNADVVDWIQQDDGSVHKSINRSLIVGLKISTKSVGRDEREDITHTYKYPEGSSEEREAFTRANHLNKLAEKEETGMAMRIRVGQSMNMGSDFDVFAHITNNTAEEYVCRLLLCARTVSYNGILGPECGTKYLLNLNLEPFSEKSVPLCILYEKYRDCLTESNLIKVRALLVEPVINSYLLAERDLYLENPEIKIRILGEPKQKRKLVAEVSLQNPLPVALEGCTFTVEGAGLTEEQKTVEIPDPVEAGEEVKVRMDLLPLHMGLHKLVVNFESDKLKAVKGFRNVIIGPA
Method: Confirmation using ELISA: An independent ELISA validated inhibition of TG2/FN complex formation by SMIs^11. The ELISA assay measured the binding between His6-TG2 captured to the wells by anti-His antibodies and biotinylated FN42 detectable with streptavidin-HRP (FIG. 12A). […] Selected compounds (at concentrations between 5 and 10 μM) inhibited the ELISA signal by 29.7% to 69.5%^11.
ELISA measured the interaction between recombinant His tagged TG2 (rTG2-His) and the biotinylated 42 kD fragment of FN (FN42) which were expressed and purified, as previously described (Yakubov et al., 2014). Briefly, a mixture of 10 nMrTG2-His and selected SMIs or DMSO was added to 96 well plates pre-coated with monoclonal anti-His antibody (Roche, Indianapolis, Ind.; 1:6000). The mixture was incubated for 1 h at RT with 5 nM biotinylated FN42. After washing, wells were incubated with streptavidin-HRP (Cell Signaling, #3999; 1:2000). The reaction was developed with 3,3′,5,5′tetramethylbenzidine (TMB) substrate (BD Biosciences, #555214) and the optical density at […] was measured by using a BioTek microplate reader (Winooski, Vt., USA). Data shown are means±SEM of two independent experiments (n=6).

OVCAR5 cells = experiment: Wound-healing assay, OVCAR5; type: cell-based, human; conditions: 8 μM, 24 hours
Method: (§1) Wound Healing was Performed in 12-Well Plates Coated with 1 μg/Ml FN (Sigma, #1141) overnight at 4° C. OC cells were plated at a density of 2×10^5 cells/well in media containing 2% FBS. Under these conditions cells adhered on substrate, but cell proliferation was minimized. After 16 hours, the cell monolayer was scraped in straight line. Cell debris was removed and serum free media containing selected SMIs or control was replenished. For consistency during image acquisition, a reference point was marked close to the scratch mark and the plate was imaged under phase-contrast microscope at 0, 2, 6, 12 and 24 hours. Wound closure was assessed as the distance between the wound edges, calculated and quantified using the Image Pro-Express software. The percentage of wound closure was evaluated using the formula […]. The rate of migration (μm/h) of OC cells into the wound space was evaluated as the distance difference between wound edges at 0 and 24 h, divided by 24. The experiments were performed in duplicates.

[2] = tested on: OVCAR433 cells adhesion onto LP9 monolayers; experiment: Cell adhesion to LP9 mesothelial monolayers, OVCAR433; type: cell-based; conditions: at concentrations >10 μM
Method: (§2) LP9 mesothelial cells added to clear-bottom 96-well plate at 12,000 cells/well were grown to confluency over 48 hours (h). OC cells were labeled with calcein AM and seeded at a density of 4×10^4 cells to monolayers of mesothelial cells and incubated for 1 h. Non-adherent cells were removed by washing with PBS.

Solubility assay = type: physicochemical; conditions: aqueous buffer, kinetic from dmso stock; pH=7.4 PBS buffer, 2% DMSO
Method: Solubility was measured in a 384-well plate using a Synergy HTX plate reader. Starting with a 50 mM DMSO stock solution of test compounds, dilutions were made from 1 to 500 μM final concentrations using acetonitrile, keeping the final DMSO concentration at 2%. UV absorption was measured at 254 nm and absorbance versus concentration was plotted to give a standard curve. A DMSO stock of test compound was also diluted with pH=7.4 PBS buffer to give a final concentration of 250 μM containing 2% DMSO. This mixture was stirred on a plate shaker for 1 hr after which it was centrifuged at 2500 rpm for 3 min. 50 μL of the supernatant was removed, transferred to a 384-well plate, and the UV absorbance at 254 nm was measured. Absorbance of the test compound in PBS buffer was analyzed with the standard curve to determine solubility.

[3] = tested on: SKOV3 cells adhesion to FN; experiment: Solid phase adhesion assay to FN, SKOV3; type: cell-based; conditions: FN 5 μg/mL, FIG. 2E
Method: Cells labeled with calcein AM (Life Technologies, #L3224) were seeded at a density of 4×10^4 cells in 96-well plates pre-coated with FN (5 μg/mL, Sigma, #F1141), and blocked using 1% BSA (Sigma, #A9647) in PBS in the presence of selected compounds diluted at the specified concentrations, in serum free media. After 45 minutes, unattached cells were washed using PBS containing 1 mM MgCl2(Sigma, #M8266) and adherent cells were quantified in a SpectraMaxGeminiXS fluorescence plate reader (Molecular Devices, Palo Alto, Calif.) at 530 nm wavelength. Experiments were performed inquadruplicate and repeated at least twice.

SKOV3-GFP cells = experiment: In vivo cell attachment to the peritoneum; design: species or system mice; conditions: for unattached OC cells recovered from the peritoneal cavity: NSG mice, ip, 10 μg/kg, 2 hours after injection
SKOV3 cells = experiment: Wound-healing assay, SKOV3; type: cell-based; conditions: 8 μM, 24 hours
Method: as §1

[4] = tested on: FAK phosphorylation in SKOV3 cells; experiment: Western blotting, FAK phosphorylation dose response; type: cell-based; conditions: increasing doses (TG53 8 to 16 μM), 2 hours after adhesion to FN
Method: FIG. 33. Dose response effects induced by TG2-FN inhibitors on FAK phosphorylation.
Lysates were separated by SDS-PAGE, transferred onto PVDF membranes (Bio-Rad), incubated with primary and secondary antibodies and developed by using SuperSignal™ West Femto Maximum Sensitivity Substrate and Pierce™ ECL Western Blotting Substrate, respectively (Thermo Scientific). Images were obtained by using the ImageQuant LAS 4000 mini-imager (GE Healthcare, Pittsburgh, Pa.). Densitometry analysis was performed using Quantity One software (Bio-Rad) and results were normalized to GAPDH loading controls. DMSO 0 min time point was considered as 1 for comparative analysis.

[5] = tested on: SKOV3 cells adhesion onto LP9 monolayers; experiment: Cell adhesion to LP9 mesothelial monolayers, SKOV3; type: cell-based; conditions: 25 μM
Method: as §2

Row | inhibition of rTG2-FN42 interaction relative to TG53 [1] | solubility at 1 h (Solubility assay) | SMILES | motility (scratch repair) (OVCAR5 cells) | OVCAR433 adhesion to the LP9 layer [2] | OC cells' adhesion to FN [3] | unattached OC cells recovered from the peritoneal cavity (SKOV3-GFP cells) | unattached OC cells recovered from the peritoneal cavity (SKOV3-GFP cells; listed as MT6) | adhesion of cancer cells to the peritoneum (SKOV3-GFP cells; nude mice, i.p., 2 hours) | motility (scratch repair) (SKOV3 cells) | FAK phosphorylation [4] | SKOV3 cell binding to the mesothelial layer [5]
1 | slightly more potently than TG53 |  | Cc1cc(N(C)C)nc(Nc2ccc(NC(=O)c3ccc(Cl)c(Cl)c3)cc2)n1 [MT-3] |  |  |  |  |  |  |  |  | 
2 | slightly more potently than TG53 | 6.4 µM | Cc1cc(N(C)C)nc(Nc2ccc(NC(=O)c3cccc(Br)c3)cc2)n1 [MT-6] | inhibited | dose-dependent inhibitory effect | potently blocked | attached less efficiently | Increased numbers | prevented the adhesion | inhibited |  | 
3 | slightly more potently than TG53 |  | Cc1cc(N(C)C)nc(Nc2ccc(NC(=O)c3ccc4ccccc4c3)cc2)n1 [MT-5] | inhibited | dose-dependent inhibitory effect | potently blocked |  |  |  | inhibited | dose-dependent inhibition | significantly decreased
4 |  |  | COc1cccc(C(=O)Nc2ccc(Nc3nc(C)cc(N(C)C)n3)cc2)c1 [MT-2] |  |  | potently blocked |  |  |  |  |  | 

From US20210276960A1, “INHIBITORS OF TISSUE TRANSGLUTAMINASE 2 (TG2) AND USES THEREOF” (Northwestern University, priority 2020, published 2021)
